# Read-outs that look alike come from different tables or passages of the source.
# Tests used:
# κ opioid receptor [1] = molecular target: T1, κ opioid receptor (Homo sapiens (Human), UniProt P41145); test: κ-opioid receptor [35S]GTPγS functional assay; type: biochemical; conditions: for Emax: maximal effect relative to U69,593
# Description: κ-Opioid Receptor Functional Assay Procedures: Functional [^35S]GTPγS binding assays were conducted as follows, k opioid receptor membrane solution was prepared by sequentially adding final concentrations of 0.026 μg/μl κ membrane protein (in-house), 10 μg/mL saponin, 3 μM GDP and 0.20 [^35S]GTPγS to binding buffer (100 mM NaCl, 10 mM MgCl2, 20 mM HEPES, pH 7.4) on ice. The prepared membrane solution (190 μl/well) was transferred to 96-shallow well polypropylene plates containing 10 μl of 20× concentrated stock solutions of agonist prepared in DMSO. Plates were incubated for 30 min at a temperature of about 25° C. with shaking. Reactions were terminated by rapid filtration onto 96-well Unifilter GF/B filter plates (Perkin Elmer, Shelton, Conn.) using a 96-well tissue harvester (Packard) and followed by three filtration washes with 200 μl ice-cold binding buffer (10 mM NaH2PO4, 10 mM Na2HPO4, pH 7.4). Filter plates were subsequently dried at 50° C. for 2-3 hours. Fifty μl/well scintillation cocktail (Perkin Elmer, Shelton, Conn.) was added and plates were counted in a Packard Top-Count for 1 min/well. Data were analyzed using the sigmoidal dose-response curve fitting functions in GraphPad PRISM™ v. 3.0, or an in-house function for non-linear, sigmoidal dose-response curve-fitting.
# κ-Opioid Receptor Functional Data: κ GTP EC50 is the concentration of a compound providing 50% of the maximal response for the compound at a κ receptor.
# κ GTP Emax (%) is the maximal effect elicited by a compound relative to the effect elicited by U69,593.
# κ opioid receptor [2] = molecular target: T1, κ opioid receptor; test: κ-opioid receptor radioligand dose-displacement binding assay ([3H]-U69,593)
# Description: κ-opioid Receptor Binding Assay Procedures: Membranes from recombinant HEK-293 cells expressing the human κ opioid receptor (cloned in house) were prepared by lysing cells in ice cold hypotonic buffer (2.5 mM MgCl2, 50 mM HEPES, pH 7.4) (10 mL/10 cm dish) followed by homogenization with a tissue grinder/Teflon pestle. Membranes were collected by centrifugation at 30,000× g for 15 min at 4° C. and pellets were resuspended in hypotonic buffer to a final concentration of 1-3 mg/mL. Protein concentrations were determined using the BioRad protein assay reagent with bovine serum albumen as standard. Aliquots of κ receptor membranes were stored at −80° C.
# Radioligand dose displacement assays used 0.4 nM [^3]-U69,593 (GE Healthcare, Piscataway, N.J.; 40 Ci/mmole) with 15 μg membrane protein (recombinant κ opioid receptor expressed in HEK 293 cells; in-house prep) in a final volume of 200 μl binding buffer (5% DMSO, 50 mM Trizma base, pH 7.4). Non-specific binding was determined in the presence of 10 μM unlabeled naloxone or U69,593. All reactions were performed in 96-well polypropylene plates for 1 hr at a temperature of about 25° C. Binding reactions were terminated by rapid filtration onto 96-well Unifilter GF/C filter plates (Perkin Elmer, Shelton, Conn.) presoaked in 0.5% polyethylenimine (Sigma). Harvesting was performed using a 96-well tissue harvester (Perkin Elmer, Shelton, Conn.) followed by five filtration washes with 200 μl ice-cold binding buffer. Filter plates were subsequently dried at 50° C. for 1-2 hours. Fifty μl/well scintillation cocktail (Perkin Elmer, Shelton, Conn.) was added and plates were counted in a Packard Top-Count for 1 min/well. Data were analyzed using the sigmoidal dose-response curve fitting functions in GraphPad PRISM™ v. 3.0, or an in-house function for non-linear, sigmoidal dose-response curve-fitting.
# κ-opioid Receptor Binding Data: In certain embodiments, the Compounds of the Invention will have a Ki (nM) for κ receptors of about 10,000 or more (which, for purposes of this invention, is interpreted as having no binding to the κ receptors).
# μ-opioid receptor [3] = molecular target: T2, μ-opioid receptor (Homo sapiens (Human), UniProt P35372); test: μ-opioid receptor [35S]GTPγS functional assay; type: biochemical; conditions: for Emax: maximal effect relative to DAMGO
# Description: μ-Opioid Receptor Functional Assay Procedures: [^35S]GTPγS functional assays were conducted using freshly thawed μ-receptor membranes (Perkin Elmer, Shelton, Conn.). Assay reactions were prepared by sequentially adding the following reagents to binding buffer (100 mM NaCl, 10 mM MgCl2, 20 mM HEPES, pH 7.4) on ice (final concentrations indicated): membrane protein (0.026 mg/mL), saponin ([…]), GDP ([…]) and [^35S]GTPγS (0.20 nM; Perkin Elmer, Shelton, Conn.). The prepared membrane solution (190 μl/well) was transferred to 96-shallow well polypropylene plates containing 10 μl of 20× concentrated stock solutions of the agonist [D-Ala^2, N-methyl-Phe^4 Gly-ol^5]-enkephalin (DAMGO) prepared in dimethyl sulfoxide (DMSO). Plates were incubated for 30 min at about 25° C. with shaking. Reactions were terminated by rapid filtration onto 96-well Unifilter GF/B filter plates (Perkin Elmer, Shelton, Conn.) using a 96-well tissue harvester (Perkin Elmer, Shelton, Conn.) followed by three filtration washes with 200 μl of ice-cold wash buffer (10 mM NaH2PO4, 10 mM Na2HPO4, pH 7.4). Filter plates were subsequently dried at 50° C. for 2-3 hr, BetaScint scintillation cocktail (Perkin Elmer, Shelton, Conn.) was added (50 μl/well) and plates were counted using a Packard Top-Count for […]. Data were analyzed using the sigmoidal dose-response curve fitting functions in GraphPad PRISM™; v. 3.0, or an in-house function for non-linear, sigmoidal dose-response curve-fitting.
# μ-Opioid Receptor Functional Data: μ GTP EC50 is the concentration of a compound providing 50% of the maximal response for the compound, at a μ-opioid receptor. […] In certain embodiments.
# μ GTP Emax (%) is the maximal effect elicited by a compound relative to the effect elicited by DAMGO, a standard μ agonist. Generally, the μ GTP Emax (%) value measures the efficacy of a compound to treat or prevent pain or other Conditions.
# μ-opioid receptor [4] = molecular target: T2, μ-opioid receptor; test: μ-opioid receptor radioligand dose-displacement binding assay ([3H]-diprenorphine); conditions: binding affinity, μ-opioid receptor membranes
# Description: μ-opioid Receptor Binding Assay Procedures: Radioligand dose-displacement binding assays for μ-opioid receptors used 0.3 nM [^3H]-diprenorphine (Perkin Elmer, Shelton, Conn.), with […] membrane protein/well in a final volume of 500 μl binding buffer (10 mM MgCl2, 1 mM EDTA, 5% DMSO, 50 mM HEPES, pH 7.4). Reactions were carried out in the absence or presence of increasing concentrations of unlabeled naloxone. All reactions were conducted in 96-deep well polypropylene plates for 2 hr at room temperature. Binding reactions were terminated by rapid filtration onto 96-well Unifilter GF/C filter plates (Perkin Elmer, Shelton, Conn.), presoaked in 0.5% polyethylenimine using a 96-well tissue harvester (Perkin Elmer, Shelton, Conn.) followed by performing three filtration washes with 500 μl of ice-cold binding buffer. Filter plates were subsequently dried at 50° C. for 2-3 hours. BetaScint scintillation cocktail (Perkin Elmer, Shelton, Conn.) was added (50 μl/well), and plates were counted using a Packard Top-Count for 1 min/well. The data were analyzed using the one-site competition curve fitting functions in GraphPad PRISM™ v. 3.0 or higher (San Diego. Calif.), or an in-house function for one-site competition curve-fitting.
# [5] = κ GTP EC50, read-out: GTPγS κ EC50
# [6] = binding affinity, recombinant κ opioid receptor expressed in HEK 293 cells, read-out: Ki (nM) Opioid Receptor κ
# [7] = μ GTP EC50, read-out: GTPγS μ EC50
Compound,Emax (κ opioid receptor [1]) [%],EC50 (κ opioid receptor [1]; [5]) [µM],Ki (κ opioid receptor [2]; [6]) [nM],Emax (μ-opioid receptor [3]) [%],EC50 (μ-opioid receptor [3]; [7]) [µM],Ki (μ-opioid receptor [4]) [nM],EC50 (κ opioid receptor [1]) [µM],Ki (κ opioid receptor [2]) [nM],EC50 (μ-opioid receptor [3]) [µM]
"COc1ccc2c(c1)[C@]1(CC(N)=O)CCN(CC3CC3)[C@H](C2)[C@@H]1CO [Compound 22, 2-((2R,6S,11R)-3-(cyclopropylmethyl)-11-(hydroxymethyl)-8-methoxy-1,2,3,4,5,6-hexahydro-2,6-methanobenzo[d]azocin-6-yl)acetamide]",41.7 ± 4.91,2.18 ± 0.326,79.1 ± 19.1,56 ± 3.61,1.28 ± 0.177,–,–,–,–
"CN(C)C(=O)CCC[C@]12CCN(CC3CC3)[C@H](Cc3ccc(O)cc31)/C2=C\C(=O)O [Compound 12, (Z)-2-((2R,6S)-3-(cyclopropylmethyl)-6-(4-(dimethylamino)-4-oxobutyl)-8-hydroxy-1,2,3,4,5,6-hexahydro-2,6-methanobenzo[d]azocin-11-ylidene)acetic acid]",74.7 ± 1.2,1 ± 0.106,42.5 ± 4.24,48.7 ± 3.53,0.421 ± 0.14,853 ± 199,–,–,–
"O=C(O)/C=C1\[C@H]2Cc3ccc(O)cc3[C@]1(CCCC(=O)O)CCN2CC1CC1 [Compound 13, 4-((2R,6S,Z)-11-(carboxymethylene)-3-(cyclopropylmethyl)-8-hydroxy-1,2,3,4,5,6-hexahydro-2,6-methanobenzo[d]azocin-6-yl)butanoic acid]",74.3 ± 7.84,0.555 ± 0.0611,66.8 ± 8.74,44.3 ± 9.06,0.743 ± 0.195,1340 ± 356,–,–,–
"COc1ccc2c(c1)[C@]1(CCO)CCN(CC3CC3)[C@H](C2)[C@@H]1CO [Compound 19, 2-((2R,6S,11R)-3-(cyclopropylmethyl)-11-(hydroxymethyl)-8-methoxy-1,2,3,4,5,6-hexahydro-2,6-methanobenzo[d]azocin-6-yl)ethanol]",40.3 ± 5.36,–,–,–,–,–,1.86 ± 0.231,89.6 ± 33,> 20
"O=C(O)CCC[C@]12CCN(CC3CC3)[C@H](Cc3ccc(O)cc31)[C@@H]2CC(=O)O [Compound 10, 4-((2R,6R,11R)-11-(carboxymethyl)-3-(cyclopropylmethyl)-8-hydroxy-1,2,3,4,5,6-hexahydro-2,6-methanobenzo[d]azocin-6-yl)butanoic acid]",31.3 ± 1.86,0.275 ± 0.0436,64.5 ± 11.3,16 ± 3,0.0705 ± 0.0269,977 ± 335,–,–,–
